Source: patent US10093642B2, “Multitarget hedgehog pathway inhibitors and uses thereof” (UNIVERSITA' DEGLI STUDI DI SIENA, priority 2013, dated 2018)

Columns and labels:
human MB D283 cells = assay: Proliferation (BrdU), viability (MTS) and cell death (Trypan Blue) of MB D283 cells; type: cell-based; details: 48 h
Protocol: FIG. 11. (A) Human MB D283 cells were treated with different concentrations of Glabrescione B as indicated for 48 h. Inhibition of cell proliferation was measured as percentage of BrdU incorporation in comparison to DMSO (0.5%, vehicle) treated sample. (B) Human MB D283 cells were treated for 48 h with increasing concentrations of Glabrescione B as indicated. After 48 h, CellTiter 96® Aqueous One Solution Reagent was added to each well according to the manufacturer's instructions. After one hour in culture the cell viability (expressed in % viability) was determined by measuring the absorbance at 490 nm comparing treatment with DMSO (0.5%, vehicle) control.
FIG. 12. […]
A biological assay was performed in cerebellar neural progenitors cells obtained from 4-days-old mice, when they are actively proliferating under Sonic Hedgehog (Shh) stimulus. As expected, treatment of these cells with Shh increased the proliferation rate, as evaluated by BrdU-incorporation assay. […]
More important, Glabrescione B was able to promote cell death of D283 MB cells, as reported by Trypan Blue count assay (FIG. 12). […] Cell death was measured by Trypan Blue (Sigma, cat. #T8154) exclusion counting at least 200 cells, in duplicate samples. All described assays were evaluated at 48 h after treatment.

[1] = test system: Hh signaling in mouse cerebellar progenitors; assay: Hh target mRNA in cerebellar progenitors of 6-day old mice after s.c. injection; type: in vivo, CD1 mice; details: 100 μmol/Kg s.c. for 2 days
Text: To assess the in vivo activity of Glabrescione B, we first tested its ability to suppress Hh signaling in 6-day old mouse cerebellar progenitors, considered the cell of origin of MB. 6-day old CD1 mice were randomly divided into two groups (n=6) and injected s.c. with solvent only (2-hydroxypropyl-β-cyclodextrin:ethanol, 3:1) or Glabrescione B in solvent (100 μmol/Kg) for 2 days (2-hydroxypropyl-β-cyclodextrin was purchased from Sigma Aldrich, St. Louis, Mo., USA). Cerebella were collected and mRNA levels were determined by qRT-PCR.

Jurkat T leukemia cells = assay: Effect on Hh-independent Jurkat cells; type: cell-based
[2] = test system: Cancer stem cells (CSCs) isolated from murine Ptch+/− MB; assay: Gli1 mRNA in MB cancer stem cells (neurospheres); type: cell-based; details: 48 h, quantitative RT-PCR
Protocol: FIG. 13. […] Gli1 mRNA levels were determined by quantitative RT-PCR using HPRT as normalizer.
Hh activity preferentially associates to stemness features. For this reason, the Hh pathway antagonist Glabrescione B has also been investigated for its ability to modulate the behavior of MB cancer stem cells (CSCs).
It has been described that Hh activity preferentially associates to stemness features. In order to determine whether Glabrescione B also modulates the behavior of MB cancer stem cells (CSCs), neurospheres isolated from murine Ptch^+/− MB were treated with Glabrescione B for 48 h and the levels of Gli1 were determined by quantitative RT-PCR. Murine MBs were isolated from Ptch1^+/− mice (Goodrich, Milenkivic et al. 1997). Tissues were collected in HBSS supplemented with 0.5% glucose and penicillin-streptomycin, grossly triturated with serological pipette and treated with DNAse I to a final concentration of 0.04% for 20 min. Finally, cells aggregates were mechanically dissociated using pipettes of decreasing bore size to obtain a single cell suspension. […]

Wnt/Bcatenin = assay: Selectivity: unrelated signal transduction pathway Wnt/Bcatenin; type: cell-based

COc1cc(OC)c2c(=O)c(-c3ccc(OCC=C(C)C)c(OCC=C(C)C)c3)coc2c1 [Glabrescione B, 3-(3′,4′-bis(3-methylbut-2-enyloxy)phenyl)-5,7-dimethoxy-4H-chromen-4-one]
percentage of cell death (Trypan Blue) (human MB D283 cells): increase of the percentage of cell death, in a dose-dependent manner | growth rate inhibition (human MB D283 cells; dose range of 1-50 μM, MTS and BrdU incorporation): 70-95% | cerebellar levels of Hh target genes (mRNA) [1]: reduced significantly | effect on Jurkat cells (Jurkat T leukemia cells): no effect | Gli1 mRNA levels in MB CSCs [2]: reduction of Gli1 mRNA levels | inhibition at 30 µM (Wnt/Bcatenin): 0%
